In one assay the test system is Enterococcus faecalis. Kind of assay: Antibacterial activity assay (MIC, broth dilution). The class given is cell-based. As to conditions: Enterococcus faecalis; Table 21; read-out: Escherichia feacalis MIC.
The subject of another assay is Staphylococcus aureus. Kind of assay: Antibacterial activity assay (MIC, broth dilution). As to conditions: for MIC: Staphylococcus aureus, Table 21, read-out: Staphylococcus aureus MIC; for S. aureus Killing: anti-bacterial activity (MIC), strain not stated; for MIC SA USA300: Staphylococcus aureus USA 300 strain, broth microdilution. The class given is cell-based. On the set-up: S. aureus Killing / Bacterial Killing S. aureus: unit not given here.

Each structure is given as a SMILES string. Where a name gives a salt, the structure may show the parent alone. A value given as a limit tells only on which side of the number the result lay.

For the compound `CN(CCC#N)c1ccc(/C=C/c2cc(-c3ccccc3)cc(-c3ccccc3)[o+]2)cc1.F[B-](F)(F)F`, the MIC in the assay on Enterococcus faecalis and in the assay on Staphylococcus aureus was above 64 µg/mL throughout. As to `Cc1ccc(-c2cc(/C=C/c3ccc(N(C)CCC#N)cc3)[o+]c(-c3ccc(C)cc3)c2)cc1.F[B-](F)(F)F`, the MIC in the assay on Enterococcus faecalis and with Staphylococcus aureus was above 64 µg/mL each time. With `CN(CCC#N)c1ccc(/C=C/c2cc(-c3ccc(C(C)(C)C)cc3)cc(-c3ccc(C(C)(C)C)cc3)[o+]2)cc1.F[B-](F)(F)F`, the MIC with Enterococcus faecalis and in the assay with Staphylococcus aureus was above 64 µg/mL in each case. As to `CN(C)c1ccc(/C=C/c2cc(-c3ccc(I)cc3)cc(-c3ccc(I)cc3)[o+]2)cc1.F[B-](F)(F)F`, the minimal inhibitory concentration (MIC) in the assay with Enterococcus faecalis and with Staphylococcus aureus was above 64 µg/mL in each case.

As for `CN(C)c1ccc(/C=C/c2cc(-c3ccc(F)c(F)c3)cc(-c3ccc(F)c(F)c3)[o+]2)cc1.F[B-](F)(F)F`, the minimal inhibitory concentration (MIC) in the assay with Enterococcus faecalis and in the assay with Staphylococcus aureus was above 64 µg/mL each time. As to `CN(CCC#N)c1ccc(/C=C/c2cc(-c3ccc(I)cc3)cc(-c3ccc(I)cc3)[o+]2)cc1.F[B-](F)(F)F`, the minimal inhibitory concentration (MIC) in the assay on Enterococcus faecalis and in the assay on Staphylococcus aureus was above 64 µg/mL throughout. As for `CN(CCC#N)c1ccc(/C=C/c2cc(-c3ccc(C(F)(F)F)cc3)cc(-c3ccc(C(F)(F)F)cc3)[o+]2)cc1.F[B-](F)(F)F`, the MIC in the assay on Enterococcus faecalis and in the assay with Staphylococcus aureus was above 64 µg/mL each time. On to `CN(CCC#N)c1ccc(/C=C/c2cc(-c3ccc(F)c(F)c3)cc(-c3ccc(F)c(F)c3)[o+]2)cc1.F[B-](F)(F)F`, for which the MIC in the assay on Enterococcus faecalis and in the assay on Staphylococcus aureus was above 64 µg/mL throughout. `CCN(CC)c1ccc(/C=C/c2cc(-c3ccc(F)cc3)cc(-c3ccc(F)cc3)[o+]2)c(O)c1.F[B-](F)(F)F`: the results for the MIC in the assay on Enterococcus faecalis and in the assay with Staphylococcus aureus were above 64 µg/mL and 64 µg/mL, respectively. `CCN(CCC#N)c1ccc(/C=C/c2cc(-c3ccc(Br)cc3)cc(-c3ccc(Br)cc3)[o+]2)c(C)c1.F[B-](F)(F)F`: the minimal inhibitory concentration (MIC) in the assay on Enterococcus faecalis and in the assay with Staphylococcus aureus was above 64 µg/mL throughout. Take `CCN(CCC#N)c1ccc(/C=C/c2cc(-c3ccc(F)cc3)cc(-c3ccc(F)cc3)[o+]2)c(C)c1.F[B-](F)(F)F`: the MIC in the assay on Enterococcus faecalis and in the assay on Staphylococcus aureus was above 64 µg/mL each time. Turning to `CCCN1CCCc2cc(/C=C/c3cc(-c4ccc(Br)cc4)cc(-c4ccc(Br)cc4)[o+]3)ccc21.F[B-](F)(F)F`, the MIC in the assay with Enterococcus faecalis and in the assay with Staphylococcus aureus was above 64 µg/mL throughout. Consider `CCCN1CCCc2cc(/C=C/c3cc(-c4ccc(F)cc4)cc(-c4ccc(F)cc4)[o+]3)ccc21.F[B-](F)(F)F`, for which the minimum inhibitory concentration (MIC) with Enterococcus faecalis and in the assay on Staphylococcus aureus was above 64 µg/mL throughout. As for `CCc1ccc(-c2cc(/C=C/c3ccc(N(C)C)cc3)[o+]c(-c3ccc(CC)cc3)c2)cc1` [(E)-2-(4-(dimethylamino)styryl)-4,6-bis(4-ethylphenyl) pyryliurn boron tetrafluoride salt], in the assay with Staphylococcus aureus, the “S. aureus Killing” value amounted to 1. The same measure, in the same setting: to `Cc1ccc(-c2cc(/C=C/c3ccc(N(C)C)cc3)[o+]c(-c3ccc(C)cc3)c2)cc1` [(E)-2-(4-(dimethylamino)styryl)-4,6-di-p-tolylpyrylium boron tetrafluoride salt] belongs 0.5. On the same count and under the same terms, to `CN(C)c1ccc(/C=C/c2cc(-c3ccccc3)cc(-c3ccccc3)[o+]2)cc1` [(E)-2-(4-(dimethylamino)styryl)-4,6-diphenylpyrylium boron tetrafluoride salt] belongs 2; to `CCc1ccc(-c2cc(/C=C/c3cn(C)c4ccccc34)[o+]c(-c3ccc(CC)cc3)c2)cc1` [(E)-2.4-bis(4-ethylphenyl)-6-(2-(1-methyl-1H-indol-3-yl)vinyl)pyrylium boron tetrafiuoride salt], 1.

Take `Cc1cc(/C=C/c2ccc(N(C)C)cc2)cc(C)[o+]1` [(E)-4-(4-(dimethylamino)styryl)-2,6-dimethvlpyrylium boron tetrafluoride salt]: the “S. aureus Killing” value with Staphylococcus aureus turned out to be 16. In the assay with Staphylococcus aureus, `CN(C)c1ccc(/C=C/c2cc(-c3ccccc3)cc(-c3ccc(F)cc3)[n+]2C)cc1.[I-]` [Compound 3jc07-1, (E)-2-(4-(dimethylamino)styryl)-6-(4-fluorophenyl)-1-methyl-4-phenylpyridin-1-ium iodide salt] displayed an MIC SA USA300 of 4 µg/mL.

In the assay with Staphylococcus aureus, `CN(CCC#N)c1ccc(/C=C/c2cc(-c3ccccc3)cc(-c3ccc(F)cc3)[n+]2C)cc1.[I-]` [Compound 3jc07-2, (E)-2-(4-((2-cyanoethyl)(methyl)amino)styryl)-6-(4-fluorophenyl)-1-methyl-4-phenylpyridin-1-ium iodide salt] had an MIC SA USA300 of 32 µg/mL. The same measure, in the same setting: in the case of `CN(C)c1ccc(/C=C/c2cc(-c3ccccc3)cc(-c3ccc(Br)cc3)[n+]2C)cc1.[I-]` [Compound 3jc07-3, (E)-2-(4-bromophenyl)-6-(4-(dimethylamino)styryl)-1-methyl-4-phenylpyridin-1-ium iodide salt] it was 2 µg/mL; in that of `CN(CCC#N)c1ccc(/C=C/c2cc(-c3ccccc3)cc(-c3ccc(Br)cc3)[n+]2C)cc1.[I-]` [Compound 3jc07-4, (E)-2-(4-bromophenyl)-6-(4-((2-cyanoethyl)(methyl)amino)styryl)-1-methyl-4-phenylpyridin-1-ium iodide salt], 32 µg/mL.

As to `COc1ccc(-c2cc(/C=C/c3ccc(N(C)C)cc3)[n+](C)c(-c3ccc(F)cc3)c2)cc1.[I-]` [Compound 3jc07-5, (E)-2-(4-(dimethylamino)styryl)-6-(4-fluorophenyl)-4-(4-methoxyphenyl)-1-methylpyridin-1-ium iodide salt], in the assay on Staphylococcus aureus, the MIC SA USA300 stood at 1 µg/mL.

Regarding `COc1ccc(-c2cc(/C=C/c3ccc(N(C)CCC#N)cc3)[n+](C)c(-c3ccc(F)cc3)c2)cc1.[I-]` [Compound 3jc07-6, (E)-2-(4-((2-cyanoethyl)(methyl)amino)styryl)-6-(4-fluorophenyl)-4-(4-methoxyphenyl)-1-methylpyridin-1-ium iodide salt], the MIC SA USA300 against Staphylococcus aureus worked out at 16 µg/mL.

`COc1ccc(-c2cc(/C=C/c3ccc(N(C)C)cc3)[n+](C)c(-c3ccc(Br)cc3)c2)cc1.[I-]` [Compound 3jc07-7, (E)-2-(4-bromophenyl)-6-(4-(dimethylamino)styryl)-4-(4-methoxyphenyl)-1-methylpyridin-1-ium iodide salt] displayed an MIC SA USA300 with Staphylococcus aureus of 1 µg/mL. Same read-out and setting: in the case of `COc1ccc(-c2cc(/C=C/c3ccc(N(C)CCC#N)cc3)[n+](C)c(-c3ccc(Br)cc3)c2)cc1.[I-]` [Compound 3jc07-8] it was 16 µg/mL; in that of `CN(C)c1ccc(/C=C/c2cc(-c3ccc(I)cc3)cc(-c3ccc(F)cc3)[n+]2C)cc1.[I-]` [Compound 3jc07-9, (E)-2-(4-(dimethylamino)styryl)-6-(4-fluorophenyl)-4-(4-iodophenyl)-1-methylpyridin-1-ium iodide salt], 4 µg/mL; in that of `CN(CCC#N)c1ccc(/C=C/c2cc(-c3ccc(I)cc3)cc(-c3ccc(F)cc3)[n+]2C)cc1.[I-]` [Compound 3jc07-10, (E)-2-(4-((2-cyanoethyl)(methyl)amino)styryl)-6-(4-fluorophenyl)-4-(4-iodophenyl)-1-methylpyridin-1-ium iodide salt], 32 µg/mL. On the same count and under the same terms, in the case of `CN(C)c1ccc(/C=C/c2cc(-c3ccc(I)cc3)cc(-c3ccc(Br)cc3)[n+]2C)cc1.[I-]` [Compound 3jc07-11, (E)-2-(4-bromophenyl)-6-(4-(dimethylamino)styryl)-4-(4-iodophenyl)-1-methylpyridin-1-ium iodide salt] it was 4 µg/mL; in that of `CN(CCC#N)c1ccc(/C=C/c2cc(-c3ccc(I)cc3)cc(-c3ccc(Br)cc3)[n+]2C)cc1` [Compound 3jc07-12, (E)-2-(4-bromophenyl)-6-(4-((2-cyanoethyl)(methyl)amino)styryl)-4-(4-iodophenyl)-1-methylpyridin-1-ium iodide salt], 32 µg/mL. In the case of `CN(CCC#N)c1ccc(/C=C/c2cc(-c3ccc(F)cc3)cc(-c3ccc(F)cc3)[o+]2)cc1.F[B-](F)(F)F` [Compound 3jc09-1, (E)-2-(4-((2-cyanoethyl)(methyl)amino)styryl)-4,6-bis(4-fluorophenyl)pyrylium boron tetrafluoride salt], the MIC SA USA300 in the assay on Staphylococcus aureus was above 64 µg/mL. As for `CN(CCC#N)c1ccc(/C=C/c2cc(-c3ccc(Br)cc3)cc(-c3ccc(Br)cc3)[o+]2)cc1` [Compound 3jc09-2, (E)-2,4-bis(4-bromophenyl)-6-(4-((2-cyanoethyl)(methyl)amino)styryl)pyrylium boron tetrafluoride salt], the MIC SA USA300 with Staphylococcus aureus is above 64 µg/mL. In the case of `CN(C)c1ccc(/C=C/c2cc(-c3ccc(Br)cc3)cc(-c3ccc(Br)cc3)[o+]2)cc1` [drawing 88, (E)-2,4-bis(4-bromophenyl)-6-(4-(dimethylamino)styryl)pyrylium boron tetrafluoride salt], the “S. aureus Killing” value with Staphylococcus aureus turned out to be 32. As to `CN1/C(=C/C=C/c2cc(-c3ccccc3)cc(-c3ccccc3)[o+]2)C(C)(C)c2ccccc21` [drawing 116, 2,4-diphenyl~6-((1E,3E)-3-(1,3,3-trimethylindolin-2-ylidene)prop-1-en-1-yl)pyrylium boron tetrafluoride salt], in the assay on Staphylococcus aureus, the “S. aureus Killing” value stood at 0.5. Still for that read-out and setting: to `Cc1ccc(-c2cc(/C=C/C=C3/N(C)c4ccccc4C3(C)C)[o+]c(-c3ccc(C)cc3)c2)cc1` [drawing 117, 2,4-di-p-tolyl-6-((1E,3E)-3-(1,3,3-trimethylindolin-2-ylidene)prop-1-en-1-yl)pyrylium boron tetrafluoride salt] belongs 1; to `CCc1ccc(-c2cc(/C=C/c3cc4c5c(c3)CCCN5CCC4)[o+]c(-c3ccc(CC)cc3)c2)cc1` [drawing 120, (E)-2,4-bis(4-ethylphenyl)-6-(2-(1,2,3,5,6,7-hexahydropyrido [3,2,1-ij]quinolin-9-yl)vinyl)pyrylium boron tetrafluoride salt], 1; to `Cc1ccc(-c2cc(/C=C/c3cc4c5c(c3)CCCN5CCC4)[o+]c(-c3ccc(C)c(C)c3)c2)cc1C` [drawing 122, (E)-2,4-bis(3.4-dimethyiphenyl)-6-(2-(1,2,3,5,6,7-hexahydropyrido [3,2,1-ij]quinolin-9-yl)vinyl)pyrylium boron tetrafluoride salt], 0.5.

The values above are taken from patent US10941114B2, “Small molecule lipid II inhibitors” (University Of Maryland, Baltimore, priority 2015, dated 2021).
